In patent US9809583B2 (priority 2014, dated 2017):
Like-named read-outs stand apart in the source and are kept apart here.

Assays:
androgen receptor (hAR) [1] = molecular target: T1, androgen receptor (hAR) (Homo sapiens (Human), UniProt P10275); assay: biochemical; assay type: binding
Procedure: In order to examine binding ability of the agonists of the present invention to androgen receptors, the following in-vitro experiment was performed. African green monkey kidney fibroblast-like cell line, COS-7 (ATCC, #CRL-1651) was seeded in a 48-well plate at a density of 2.5×10^4 cells/well, and cultured for 24 hours. Then, a plasmid hAR-mixed medium was added thereto. […] Thereafter, the cells were lysed and the amount of [3H]MIB bound to the intracellular androgen receptors was measured using a radiation dosimeter.

castrated male rats = assay: Efficacy test in castrated male rat (Hershberger assay); assay type: in vivo, SD (Sprague-Dawley) rat; details: castrated male SD rats, oral once a day for 14 days
Procedure: SD (Sprague-Dawley) male rats (7-week-old) were castrated under ketamine/xylazine anesthesia, and 5 rats were randomly assigned to one group. From the next day, the agonists were dissolved in a vehicle solution and orally administered at a dose of 5 ml per kg once a day for 14 days. As the vehicle, DMSO, Co-solvent, and DW were prepared at a ratio of 4:80:16 (v/v/v), and Co-solvent was prepared by mixing PEG400, Ethanol, and Tween 80 at a ratio of 85:10:5 (v/v/v). 24 hours after last administration of the drug, their body weight was measured and killed. Thereafter, levator ani muscle, ventral prostate, and seminal vesicles were removed and weighed (Hershberger assay). The following Table 6 represents the result of the efficacy test in castrated male rats.

androgen receptor (hAR) [2] = molecular target: T1, androgen receptor (hAR); assay: Test of transcriptional activity (hAR / ARE-Luc dual-luciferase assay in CHO cells); assay type: cell-based; details: CHO cells with hAR and ARE-Luc, 24 hours, 10 nM DHT = 100%
Outline: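 CHO cells cultured 24 h, then transfected with hAR and ARE-Luc plasmids. Transfected cells treated with 0.1˜10,000 nM compound for 24 h; transcriptional activity read by dual-luciferase reporter.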

[3] = 1 nM [3H]MIB, hAR-transfected COS-7 cells, 2 hours, read-out: IC50 [nM] (mean ± SE)
[4] = read-out: EC50 [nM] (mean ± SE)

T1 sequence (P10275 whole entry): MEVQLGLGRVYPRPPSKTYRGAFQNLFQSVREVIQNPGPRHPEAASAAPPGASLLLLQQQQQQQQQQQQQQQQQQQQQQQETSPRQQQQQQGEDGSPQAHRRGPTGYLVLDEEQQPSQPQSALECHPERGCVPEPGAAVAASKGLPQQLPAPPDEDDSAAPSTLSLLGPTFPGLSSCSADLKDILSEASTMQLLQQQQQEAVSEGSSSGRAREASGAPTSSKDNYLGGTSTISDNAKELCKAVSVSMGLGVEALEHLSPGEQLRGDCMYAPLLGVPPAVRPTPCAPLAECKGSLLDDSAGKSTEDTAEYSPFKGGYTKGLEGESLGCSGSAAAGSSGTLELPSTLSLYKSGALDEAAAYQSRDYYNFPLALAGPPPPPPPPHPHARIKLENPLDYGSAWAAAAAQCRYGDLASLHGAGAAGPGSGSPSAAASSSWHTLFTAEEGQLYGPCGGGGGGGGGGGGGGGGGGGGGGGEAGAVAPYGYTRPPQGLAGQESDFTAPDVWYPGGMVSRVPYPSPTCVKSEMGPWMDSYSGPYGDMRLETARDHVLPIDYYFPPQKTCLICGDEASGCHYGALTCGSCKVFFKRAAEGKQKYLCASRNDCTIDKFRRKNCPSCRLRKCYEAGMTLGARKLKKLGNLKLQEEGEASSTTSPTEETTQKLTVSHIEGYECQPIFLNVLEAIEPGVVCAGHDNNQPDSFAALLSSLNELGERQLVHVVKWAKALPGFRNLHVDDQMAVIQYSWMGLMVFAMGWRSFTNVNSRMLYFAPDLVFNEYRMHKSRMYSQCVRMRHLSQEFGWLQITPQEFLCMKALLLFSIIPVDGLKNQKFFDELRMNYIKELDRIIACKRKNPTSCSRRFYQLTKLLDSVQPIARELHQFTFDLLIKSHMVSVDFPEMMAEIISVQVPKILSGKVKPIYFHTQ

## N#Cc1ccc(COC[C@H]2CN(c3ccc(C#N)c(C(F)(F)F)c3)[C@H](C(F)(F)F)O2)cc1 [Example 4, 4-((2S,5R)-5-(((4-cyanobenzyl)oxy)methyl)-2-(trifluoromethyl)oxazolidin-3-yl)-2-(trifluoromethyl)benzonitrile]
Androgen receptor (hAR) [1]; [3]
  IC50: 657 nM

## N#Cc1ccc(OC[C@H]2CN(c3ccc(C#N)c(C(F)(F)F)c3)[C@@H](C(F)(F)F)O2)cc1 [Example 5, 4-((2R,5R)-5-((4-cyanophenoxy)methyl)-2-(trifluoromethyl)oxazolidin-3-yl)-2-(trifluoromethyl)benzonitrile]
Androgen receptor (hAR) [1]
  IC50: 91.6 nM

## N#Cc1ccc(N2C[C@@H](COc3ccc(C(=O)O)cc3)O[C@@H]2C(F)(F)F)cc1C(F)(F)F [Example 9, 4-(((2R,5S)-3-(4-cyano-3-(trifluoromethyl)phenyl)-2-(trifluoromethyl)oxazolidin-5-yl)methoxy)benzoic acid]
Androgen receptor (hAR) [1]
  IC50: 367 nM

## N#Cc1ccc(N2C[C@@H](COc3ccc([N+](=O)[O-])cc3Cl)O[C@@H]2C(F)(F)F)cc1C(F)(F)F [Example 12, 4-((2R,5S)-5-((2-chloro-4-nitrophenoxy)methyl)-2-(trifluoromethyl)oxazolidin-3-yl)-2-(trifluoromethyl)benzonitrile]
Androgen receptor (hAR) [1]; [3]
  IC50: 145 nM

## N#Cc1ccc(OC[C@H]2CN(c3ccc(C#N)c(C(F)(F)F)c3)[C@H](C(F)(F)F)O2)cc1 [Example 20, 4-((2S,5R)-5-((4-cyanophenoxy)methyl)-2-(trifluoromethyl)oxazolidin-3-yl)-2-(trifluoromethyl)benzonitrile]
Androgen receptor (hAR) [1]; [3]
  IC50: 1080 nM

## N#Cc1ccc(N2C[C@H]([C@@H](O)C(F)(F)F)O[C@H]2C(F)(F)F)cc1C(F)(F)F [Example 21, 4-((2S,5R)-5-((R)-2,2,2-trifluoro-1-hydroxyethyl)-2-(trifluoromethyl)oxazolidin-3-yl)-2-(trifluoromethyl)benzonitrile]
Androgen receptor (hAR) [1]; [3]
  IC50: 1060 nM

## N#Cc1ccc(N2C[C@H]([C@H](O)C(F)(F)F)O[C@H]2C(F)(F)F)cc1C(F)(F)F [Example 22, 4-((2S,5R)-5-((S)-2,2,2-trifluoro-1-hydroxyethyl)-2-(trifluoromethyl)oxazolidin-3-yl)-2-(trifluoromethyl)benzonitrile]
Androgen receptor (hAR) [1]; [3]
  IC50: 1870 nM

## N#Cc1ccc(N2C[C@@H]([C@@H](O)C(F)(F)F)O[C@@H]2C(F)(F)F)cc1C(F)(F)F [Example 23, 4-((2R,5S)-5-((R)-2,2,2-trifluoro-1-hydroxyethyl)-2-(trifluoromethyl)oxazolidin-3-yl)-2-(trifluoromethyl)benzonitrile]
Androgen receptor (hAR) [1]; [3]
  IC50: 44.3 nM

## N#Cc1ccc(N2C[C@@H]([C@H](O)C(F)(F)F)O[C@@H]2C(F)(F)F)cc1C(F)(F)F [Example 24, 4-((2R,5S)-5-((S)-2,2,2-trifluoro-1-hydroxyethyl)-2-(trifluoromethyl)oxazolidin-3-yl)-2-(trifluoromethyl)benzonitrile]
Androgen receptor (hAR) [1]; [3]
  IC50: 141 nM

## COc1ccc(OC[C@@H]2CN(c3ccc(C#N)c(C(F)(F)F)c3)[C@@H](C(F)(F)F)O2)cc1 [Example 27, 4-((2R,5S)-5-((4-methoxyphenoxy)methyl)-2-(trifluoromethyl)oxazolidin-3-yl)-2-(trifluoromethyl)benzonitrile]
Androgen receptor (hAR) [1]; [3]
  IC50: 22.4 nM

## COc1cccc(OC[C@@H]2CN(c3ccc(C#N)c(C(F)(F)F)c3)[C@@H](C(F)(F)F)O2)c1 [Example 28, 4-((2R,5S)-5-((3-methoxyphenoxy)methyl)-2-(trifluoromethyl)oxazolidin-3-yl)-2-(trifluoromethyl)benzonitrile]
Androgen receptor (hAR) [1]; [3]
  IC50: 77.2 nM

## CC(=O)Nc1ccc(OC[C@@H]2CN(c3ccc(C#N)c(C(F)(F)F)c3)[C@H](C(F)(F)F)O2)cc1 [Example 30, N-(4-(((2S,5S)-3-(4-cyano-3-(trifluoromethyl)phenyl)-2-(trifluoromethyl)oxazolidin-5-yl)methoxy)phenyl)acetamide]
Androgen receptor (hAR) [1]; [3]
  IC50: 142 nM

## COC(=O)N1CCN(C(=O)[C@@H]2CN(c3ccc(C#N)c(C(F)(F)F)c3)[C@@H](C(F)(F)F)O2)CC1 [Example 173, methyl 4-((2R,5S)-3-(4-cyano-3-(trifluoromethyl)phenyl)-2-(trifluoromethyl)oxazolidine-5-carbonyl)piperazine-1-carboxylate]
Castrated male rats; 0.03 mg/kg
  levator ani muscle weight % relative to intact control group: 9.8 ± 0.6%
  seminal vesicles weight % relative to intact control group: 1.3 ± 0.4%
  ventral prostate weight % relative to intact control group: 0.6 ± 0.1%
Castrated male rats; 0.1 mg/kg
  levator ani muscle weight % relative to intact control group: 15.0 ± 1.2%
  seminal vesicles weight % relative to intact control group: 1.3 ± 0.3%
  ventral prostate weight % relative to intact control group: 3.2 ± 0.6%
Castrated male rats; 0.3 mg/kg
  levator ani muscle weight % relative to intact control group: 37.5 ± 2.3%
  seminal vesicles weight % relative to intact control group: 2.9 ± 0.3%
  ventral prostate weight % relative to intact control group: 3.5 ± 0.5%
Castrated male rats; 1 mg/kg
  levator ani muscle weight % relative to intact control group: 61.1 ± 9.9%
  seminal vesicles weight % relative to intact control group: 5.9 ± 2.1%
  ventral prostate weight % relative to intact control group: 9.1 ± 2.1%
Castrated male rats; 3 mg/kg
  levator ani muscle weight % relative to intact control group: 69.9 ± 3.6%
  seminal vesicles weight % relative to intact control group: 20.3 ± 4.8%
  ventral prostate weight % relative to intact control group: 12.4 ± 3.5%
Castrated male rats; 10 mg/kg
  levator ani muscle weight % relative to intact control group: 93.0 ± 11.0%
  seminal vesicles weight % relative to intact control group: 34.5 ± 4.0%
  ventral prostate weight % relative to intact control group: 24.4 ± 2.0%
Castrated male rats; 30 mg/kg
  levator ani muscle weight % relative to intact control group: 91.4 ± 8.2%
  seminal vesicles weight % relative to intact control group: 45.5 ± 8.6%
  ventral prostate weight % relative to intact control group: 33.2 ± 3.3%
Castrated male rats; 100 mg/kg
  levator ani muscle weight % relative to intact control group: 99.5 ± 13.0%
  seminal vesicles weight % relative to intact control group: 52.8 ± 10.6%
  ventral prostate weight % relative to intact control group: 48.6 ± 9.3%
Androgen receptor (hAR) [2]; EC50 [nM] (mean ± SE)
  EC50: 5.34 nM

## (2R,5S)-3-(3-chloro-4-cyanophenyl)-N-(2-chloropyridin-4-yl)-2-(trifluoromethyl)oxazolidine-5-carboxamide [Example 136]
Castrated male rats; 0.03 mg/kg
  levator ani muscle weight % relative to intact control group: 3.7 ± 0.8%
  seminal vesicles weight % relative to intact control group: −0.1 ± 0.0%
  ventral prostate weight % relative to intact control group: 1.7 ± 0.5%
Castrated male rats; 0.1 mg/kg
  levator ani muscle weight % relative to intact control group: 4.5 ± 0.9%
  seminal vesicles weight % relative to intact control group: −0.4 ± 0.1%
  ventral prostate weight % relative to intact control group: −0.6 ± 0.3%
Castrated male rats; 0.3 mg/kg
  levator ani muscle weight % relative to intact control group: 10.0 ± 0.8%
  seminal vesicles weight % relative to intact control group: 0.8 ± 0.1%
  ventral prostate weight % relative to intact control group: 1.2 ± 0.3%
Castrated male rats; 1 mg/kg
  levator ani muscle weight % relative to intact control group: 29.1 ± 3.3%
  seminal vesicles weight % relative to intact control group: 0.9 ± 0.2%
  ventral prostate weight % relative to intact control group: 2.6 ± 0.4%
Castrated male rats; 3 mg/kg
  levator ani muscle weight % relative to intact control group: 36.6 ± 3.4%
  seminal vesicles weight % relative to intact control group: 2.4 ± 0.7%
  ventral prostate weight % relative to intact control group: 4.1 ± 0.9%
Castrated male rats; 10 mg/kg
  levator ani muscle weight % relative to intact control group: 61.8 ± 3.1%
  seminal vesicles weight % relative to intact control group: 11.0 ± 3.6%
  ventral prostate weight % relative to intact control group: 10.5 ± 3.7%
Castrated male rats; 30 mg/kg
  levator ani muscle weight % relative to intact control group: 81.4 ± 10.9%
  seminal vesicles weight % relative to intact control group: 35.8 ± 14.4%
  ventral prostate weight % relative to intact control group: 25.4 ± 7.8%
Castrated male rats; 100 mg/kg
  levator ani muscle weight % relative to intact control group: 98.5 ± 7.7%
  seminal vesicles weight % relative to intact control group: 57.8 ± 17.9%
  ventral prostate weight % relative to intact control group: 42.1 ± 7.5%
Androgen receptor (hAR) [2]; [4]
  EC50: 5.07 nM

## (2R,5S)-N-(4-acetamidophenyl)-3-(3-chloro-4-nitrophenyl)-2-(trifluoromethyl)oxazolidine-5-carboxamide [Example 123]
Castrated male rats; 0.03 mg/kg
  levator ani muscle weight % relative to intact control group: 3.5 ± 0.5%
  seminal vesicles weight % relative to intact control group: 0.3 ± 0.0%
  ventral prostate weight % relative to intact control group: 0.5 ± 0.1%
Castrated male rats; 0.1 mg/kg
  levator ani muscle weight % relative to intact control group: 7.00 ± 0.7%
  seminal vesicles weight % relative to intact control group: 0.2 ± 0.0%
Castrated male rats; 0.3 mg/kg
  levator ani muscle weight % relative to intact control group: 14.7 ± 1.5%
  seminal vesicles weight % relative to intact control group: 0.1 ± 0.0%
  ventral prostate weight % relative to intact control group: 1.6 ± 0.2%
Castrated male rats; 1 mg/kg
  levator ani muscle weight % relative to intact control group: 23.0 ± 1.1%
  seminal vesicles weight % relative to intact control group: 0.5 ± 0.1%
  ventral prostate weight % relative to intact control group: 0.7 ± 0.2%
Castrated male rats; 3 mg/kg
  levator ani muscle weight % relative to intact control group: 40.2 ± 4.2%
  seminal vesicles weight % relative to intact control group: 2.8 ± 1.2%
  ventral prostate weight % relative to intact control group: 5.6 ± 1.9%
Castrated male rats; 10 mg/kg
  levator ani muscle weight % relative to intact control group: 58.7 ± 4.1%
  seminal vesicles weight % relative to intact control group: 11.0 ± 2.3%
  ventral prostate weight % relative to intact control group: 7.9 ± 2.2%
Castrated male rats; 30 mg/kg
  levator ani muscle weight % relative to intact control group: 78.9 ± 4.0%
  seminal vesicles weight % relative to intact control group: 30.5 ± 5.7%
  ventral prostate weight % relative to intact control group: 23.0 ± 2.9%
Castrated male rats; 100 mg/kg
  levator ani muscle weight % relative to intact control group: 88.5 ± 4.7%
  seminal vesicles weight % relative to intact control group: 58.7 ± 10.8%
  ventral prostate weight % relative to intact control group: 39.0 ± 9.8%
Androgen receptor (hAR) [2]; [4]
  EC50: 7.34 nM
